From publication PMC12567141, “Design, Synthesis and Biological Evaluation of Pyrazolopyrimidine Derivatives as Aryl Hydrocarbon Receptor Antagonists for Colorectal Cancer Immunotherapy” (Pharmaceutics, 2025)

Key:
AhR = AhR antagonist screening using Tg(cyp1a:egfp) zebrafish; type: in vivo; design: key to AhR Antagonist Activity at 100 nM: - no inhibition; + weak; ++ mild; +++ moderate; ++++ high; +++++ very high
Experimental: At 30 hpf, Tg(cyp1a:egfp) embryos were placed in a 2-mL screw-capped glass vial with five embryos per vial. Each vial contained 1 mL of E3 media (5 mM NaCl, 0.17 mM KCl, 0.33 mM CaCl2·2H2O and 0.4 mM MgCl2·6H2O, pH 7.2) and supplemented with 2 nM TCDD (1746-01-6; AccuStandard Inc., New Haven, NH, USA) dissolved in DMSO. The compounds were subsequently diluted and individually introduced into the vials, achieving a final concentration of 0.1% DMSO. The embryos were then incubated for 48 h and then embryonic EGFP expression was evaluated using a fluorescent stereomicroscope (SteREO Discovery V8; Zeiss, Oberkochen, BW, Germany). As a positive control, StemRegenin1 (72342, […] Technologies, Vancouver, BC, Canada) was employed.
To evaluate AhR antagonistic activity, we conducted an AhR antagonist assay using transgenic zebrafish. Zebrafish have garnered significant attention as model organisms for drug discovery because they share metabolic pathways with mammals. […] Therefore, we synthesized more meta substituted phenyl derivatives. […] We also synthesized heteroaromatic derivatives including pyrimidine and pyridine at 5-position; however, their activities were decreased.

[1] = system: normal cells (CHO, L929, CCD-18Co); assay: Cell viability assay (CCK-8), normal cells; type: cell-based; settings: 24 h, 7k: CHO, SR-1: CCD-18Co
Experimental: Chinese hamster ovary CHO cells, mouse fibroblast L929 cells, normal colon CCD18-Co cells, monkey kidney fibroblast COS-7 cells, colorectal cancer cells including HCT-116, RKO, SW480, SW620, CT26, and MC38 cells were purchased from ATCC (American Type Culture Collection). CHO, L929, Cos-7, and all cancer cells were maintained in RPMI 1640 or DMEM supplemented with 10% FBS (Gibco FBS; Thermo Fisher Scientific, Hanover Park, IL, USA) and 1% streptomycin/penicillin. CCD18-Co cells were cultured in high-glucose Dulbecco modified Eagle medium containing 10% FBS and 1% streptomycin/penicillin. All cells were grown in 5% CO2 at 37 °C. Mycoplasma testing was regularly performed every month using the BioMycoX Mycoplasma PCR Detection Kit (CellSafe, Yongin, Republic of Korea).
Cell viability was analyzed using a Cell Counting Kit-8 (Dojindo molecular technologies, Rockville, MD, USA). Cells were seeded in 96-well plates and treated with different concentrations of 7k. At the indicated time points, CCK-8 (10 μL/well) reagents were added to the cells, followed by further incubation at 37 °C for 90 min. The absorbance at 450 nm was measured using a plate reader (BioTek instruments, Winooski, VT, USA).

HCT-116 cells = assay: Clonogenic assay; type: cell-based; settings: colorectal cancer cells vs vehicle-treated cells
Experimental: Cells were plated into 6-well plates and left for 48 h. After treatment with 5, 10 μM 7k for 24 h, the drug-containing medium was discarded, and cells were washed twice with PBS and left in complete culture medium for the time corresponding to six doublings. Finally, cells were fixed in 4% Paraformaldehyde (PFA) solution and stained with 0.05% crystal violet.

MC38 and CT26 cells = assay: Cell-cycle analysis by flow cytometry; type: cell-based; settings: 24 h treatment
Experimental: Washed and fixed cells were stained in the dark with 0.5 mL propidium iodide/RNase staining buffer for 15 min at room temperature. DNA content, cell-cycle profiles, and forward scatter were analyzed using a Becton Dickinson LSRFortessa^TM (BD Diagnostics, San Jose, CA, USA) with emission detection at 488 nm (excitation) and 575 nm (peak emission). Data were analyzed using FlowJo (BD biosciences, San Jose, CA. USA).

[2] = system: AhR, AhRR, and IDO-1 mRNA expression in MC38 and CT26 cells; assay: qRT-PCR of AhR downstream genes in kynurenine-stimulated cells; type: cell-based; settings: 200 μM kynurenine-stimulated MC38 and CT26 cells, 24 h, qPCR
Experimental: MC38 and CT26 were treated with different concentrations of 7k and 200 μM Kynurenine for 24 h. RNA from treated cells was extracted and cDNA was synthesized using the ReverTraAce™ qPCR RT Kit (TOYOBO, Osaka, Japan), followed by evaluation of AhR, AhRR, and IDO-1 mRNA expression with quantitative real-time PCR. PCR conditions were 95 °C preincubation, maintained for 1 min, and then 1 cycle of 95 °C denaturation for 15 s, 55 °C annealing for 15 s, and 72 °C polymerization for 45 s. A total of 40 cycles were repeated. Advanced Relative Quantification analysis was used to confirm the structure of the expected quantitative real-time PCR product, and the variability of other gene amplification was calibrated by relative comparison with GAPDH expression (Table 1).

CT26 tumor = assay: In vivo therapy, CT26 syngeneic model; design: species or system mice
Experimental: (§1) In vivo experiments were conducted using 6-week-old male immunocompetent BALB/c and C57BL/6 with 18–20 g body weight (Orient Bio Inc., Seungnam, Republic of Korea). All animal experimental procedures were maintained and used in accordance with the Guidelines for the Care and Use of Laboratory Animals of the Institute of Laboratory Animal Center, Daegu-Gyeongbuk Medical Innovation Foundation (K-MEDI hub). The animal studies were conducted after approval by the institutional reviewer board on the Ethics of Animal Experiments of the Daegu-Gyeongbuk Medical Innovation Foundation (approval number: KMEDI-24041103-01).
(§2) Study 1: Antitumor activity of 7k alone in mice with either CT26 syngeneic model or MC38 syngeneic model. Mice were subcutaneously challenged with 5 × 10^5 either MC38 or CT26 cells. When tumor formation was detected via inspection and palpation, 7k treatment was initiated once a day for 14 days by oral gavage.
Study 2: Antitumor activity of combination with anti-PD1 and 7k in CT26 tumor bearing mice. Mice were subcutaneously challenged with 5 × 10^5 CT26 cells. Tumor bearing mice were divided into four groups as following; Group 1: vehicle, Group 2: 10 mg/kg anti-PD1, Group 3: 10 mg/kg 7k, and Group 4: 10 mg/kg anti-PD1 + 10 mg/kg 7k. 7k was administered by oral gavage once daily. Anti-PD1 antibody (clone RPM1-14, Bio X cell, Lebanon, NH, USA) was injected intraperitoneally every 3 days for 4 doses.
The 7k was dissolved in solution including 5% DMSO, 55% DW, and 40% PEG. Tumor size was measured with a caliper at the indicated time points, and tumor volume (mm^3) was calculated using the following formula, tumor volume (mm^3) = d2 × D/2, where d and D are the shortest and longest diameters in mm, respectively.

[3] = Body weight during in vivo therapy; settings: 7k-treated tumor-bearing mice during in vivo therapy
Experimental: as §1, §2
Study 2: Antitumor activity of combination with anti-PD1 and 7k in CT26 tumor bearing mice. Mice were subcutaneously challenged with 5 × 10^5 CT26 cells. Tumor bearing mice were divided into four groups as following; Group 1: vehicle, Group 2: 10 mg/kg anti-PD1, Group 3: 10 mg/kg 7k, and Group 4: 10 mg/kg anti-PD1 + 10 mg/kg 7k. 7k was administered by oral gavage once daily. […]

## CC(C)n1cc2nc(-c3cc(F)cc(F)c3)nc(NCCc3c[nH]c4ccccc34)c2n1 [Compound 7k, N-(2-(1H-indol-3-yl)ethyl)-5-(3,5-difluorophenyl)-2-isopropyl-2H-pyrazolo [4,3-d]pyrimidin-7-amine]
AhR; Tg(cyp1a:egfp) zebrafish, EGFP readout
  AhR antagonistic activity in zebrafish, in words: significant antagonistic activity against AhR
AhR; extent of GFP reduction in Tg(cyp1a:egfp) zebrafish compared to the TCDD (2 nM) control, 100 nM, 48 h
  AhR Antagonist Activity at 100 nM: +++++
[1]
  cell viability of normal cells: few antiproliferative effects
HCT-116 cells
  colony formation ability: significant decrease in the colony formation ability
MC38 and CT26 cells
  sub-G1 fraction: dose-dependent increase in the sub-G1 fraction
[2]
  expression levels of AhR, AhRR, and IDO-1: reduced the expression levels of AhR, AhRR, and IDO-1
CT26 tumor; CT26 model, combination study, 7k 10 mg/kg oral daily 14 days, anti-PD1 10 mg/kg i.p. every 3 days x4
  tumor growth inhibition (TGI): 49%
CT26 tumor; CT26 tumor bearing mice, vs vehicle-treated mice (Figure S4)
  tumor weight: significantly lower
CT26 tumor; CT26 tumor-bearing mice, single agent, 10 mg/kg oral once a day for 14 days
  tumor growth inhibition (TGI): 33%
[3]
  body weight: No abnormal reduction in body weight
